Results reported in patent US8431523B2, “Oligomeric biosurfactants in dermatocosmetic compositions” (priority 2006, dated 2013).
Non-standard residues stand in square brackets, D forms with d. Residues, ends and D or L forms follow the SMILES beside them. *: point of attachment. Palmitoyl = CCCCCCCCCCCCCCCC(=O)*; Myristoyl = CCCCCCCCCCCCCC(=O)*

tested on: metabolic soluble proteins; assay: CBQCA Protein Quantitation Assay (metabolic soluble protein); assay type: cell-based
Procedure: A first aspect of the present invention is directed to OABs having an ability to increase metabolic soluble proteins by at least about 20%. For purposes of the present invention, metabolic soluble protein is measured using the CBQCA Protein Quantitation Assay from Molecular Probes, Inc. (Eugene, Oreg.). This assay is based on aquinoline-2-carboxaldehyde derivative, which specifically reacts with primary amines to form conjugates capable of electrophoretic or chromatographic analysis. More specifically, in the presence of the cyanide anion, the quinoline-2-carboxaldehyde derivative reacts with primary amines, including those on proteins, and produces a highly-fluorescent emission at 550 nm.

Compound | increase metabolic soluble proteins | increases metabolic soluble protein (qualitative)
Myr-III-amide [P420] | at least 20% | 
Pal-KK-amide [P316] |  | increases metabolic soluble protein
Pal-RR-amide [P318] |  | increases metabolic soluble protein
CCCCCCCCCCCCCC(=O)N[C@@H](CCCNC(=N)N)C(N)=O [P391, Myr-R-amide] |  | increases metabolic soluble protein
Myr-RH-amide [P393] |  | increases metabolic soluble protein

tested on: E. coli, P. aeruginosa, P. cepacia, S. aureus, including MRSA, S. epidermidis, and C. albicans; assay: not given; assay type: cell-based
From the text: By “antimicrobial” activity is meant the ability to inhibit the growth of at least one microbial organism selected from the group consisting E. coli, P. aeruginosa, S. aureus and C. albicans, as confirmed by optical density measurement (“OD”).
By “inhibition of growth” is meant reduction or absence of an increase greater than 5% in OD, a dimensionless measure of turbidity that is proportional to the amount of microbial cells present in a sample. For illustrative purposes, a OAB according to the present invention is added to a culture plate on which E. coli is present at a final concentration of about 5×10^3 cfu/ml. The plate is then incubated at about 37° C. for about 24 hours at which time the E. coli is resuspended by shaking, and OD is measured at about 600 nm. Thus, a reduction or absence of an increase greater than 5% in OD confirms the antimicrobial nature of the OAB with respect to E. coli.
Minimum inhibitory concentration (“MIC”) is a method well-known to those of skill in the art for expressing antimicrobial activity. A compound to be tested is serially diluted into growth medium, inoculated with culture and then incubated. The MIC is the lowest dilution of compound that inhibits or prevents growth of the target microorganism.
A further aspect of the present invention is directed to oligomeric acylated biosurfactants having a CMC of less than about 100 ppm in an aqueous environment of MEM Solution that reduces the surface tension of the MEM Solution to less than about […] where the OAB consists essentially of two to nine amino acid residues, at least one of which is charged, and has a MIC of less than 100 ppm for at least two of the following microorganisms: E. coli, P. aeruginosa, P. cepacia, S. aureus, including MRSA, S. epidermidis, and C. albicans. OABs meeting this criterion are selected from the group consisting of: Myr-GR-amide (P300); Myr-KK-amide (P315); Pal-HR-amide (P320); Myr-KK-acid (P347); SEQ ID NO 79 (P367); Myr-GHR-amide (P245); Pal-GHR-amide (P250); Myr-GRK-amide (P303); Pal-G-H—[R]^D-amide (P366); SEQ ID NO 84 (368); SEQ ID NO 58 (P370); SEQ ID NO 59 (P360); SEQ ID NO 60 (P373); SEQ ID NO 61 (P376); SEQ ID NO 62 (P369); SEQ ID NO 63 (P379); SEQ ID NO 64 (P381); SEQ ID NO 65 (P416); SEQ ID NO 66 (P383); and SEQ ID NO 67 (P289).

Compound | MIC for at least two of the listed microorganisms
CCCCCCCCCCCCCCCC(=O)NCC(=O)N[C@@H](Cc1c[nH]cn1)C(=O)N[C@@H](CCCNC(=N)N)C(N)=O [P250, Pal-GHR-amide] (Palmitoyl-Gly-His-Arg-NH2) | less than 100 ppm
CCCCCCCCCCCCCC(=O)N[C@@H](CCCCN)C(=O)N[C@@H](CCCCN)C(=O)N[C@@H](C)C(=O)N[C@@H](CC(C)C)C(=O)N[C@@H](CCCCN)C(=O)N[C@@H](CCCCN)C(N)=O [P369, Myr-KKALKK-amide] (Myristoyl-KKALKK-NH2) | less than 100 ppm
CCCCCCCCCCCCCC(=O)NCC(=O)N[C@@H](CCCNC(=N)N)C(=O)N[C@@H](CCCCN)C(N)=O [P303, Myr-GRK-amide] (Myristoyl-Gly-Arg-Lys-NH2) | less than 100 ppm
CCCCCCCCCCCCCC(=O)N[C@@H](CCCCN)C(=O)N[C@@H](CCCCN)C(=O)N[C@@H](C)C(=O)N[C@@H](CC(C)C)C(=O)N[C@@H](CCCCN)C(=O)N[C@@H](C)C(N)=O [P379, Myr-KKALKA-amide] (Myristoyl-KKALKA-NH2) | less than 100 ppm
CCCCCCCCCCCCCCCC(=O)N[C@@H](CC(C)C)C(=O)N[C@@H](C)C(=O)N[C@@H](CCCCN)C(=O)N[C@@H](CCCCN)C(N)=O [P370, Pal-LAKK-amide] (Palmitoyl-LAKK-NH2) | less than 100 ppm
CCCCCCCCCCCCCCCC(=O)NCC(=O)N[C@@H](Cc1c[nH]cn1)C(=O)N[C@H](CCCNC(=N)N)C(N)=O [P366, Pal-G-H-[R]^D-amide] (Palmitoyl-Gly-His-[dR]-NH2) | less than 100 ppm
CCCCCCCCCCCCCCCC(=O)N[C@@H](CCCCN)C(=O)N[C@H](CCCCN)C(N)=O [P367, Pal-K-[K]^D-amide] | less than 100 ppm
CCCCCCCCCCCCCC(=O)N[C@@H](CC(C)C)C(=O)N[C@@H](C)C(=O)N[C@H](C(=O)N[C@@H](CCCCN)C(=O)N[C@@H](CCCCN)C(N)=O)[C@@H](C)CC [P376, Myr-LAIKK-amide] (Myristoyl-LAIKK-NH2) | less than 100 ppm
CCCCCCCCCCCCCC(=O)N[C@@H](CCCCN)C(=O)N[C@@H](CCCCN)C(=O)O [P347, Myr-KK-acid] | less than 100 ppm
CCCCCCCCCCCCCC(=O)N[C@@H](CC(C)C)C(=O)N[C@@H](CCCCN)C(=O)N[C@@H](C)C(=O)N[C@@H](CCCCN)C(N)=O [P289, Myr-LKAK-amide] (Myristoyl-LKAK-NH2) | less than 100 ppm
CCCCCCCCCCCCCCCC(=O)N[C@@H](Cc1c[nH]cn1)C(=O)N[C@@H](CCCNC(=N)N)C(N)=O [P320, Pal-HR-amide] (Palmitoyl-His-Arg-NH2) | less than 100 ppm
CCCCCCCCCCCCCC(=O)N[C@@H](CCCCN)C(=O)N[C@@H](CCCCN)C(N)=O [P315, Myr-KK-amide] | less than 100 ppm
CCCCCCCCCCCCCC(=O)N[C@H](CCCCN)C(=O)N[C@@H](CCCCN)C(=O)N[C@H](C)C(=O)N[C@@H](CC(C)C)C(=O)N[C@H](CCCCN)C(N)=O [P360, Myr-[K]^D-K-[A]^D-L-[K]^D-amide] (Myristoyl-[dK]K[dA]L[dK]-NH2) | less than 100 ppm
CCCCCCCCCCCCCC(=O)NCC(=O)N[C@@H](Cc1c[nH]cn1)C(=O)N[C@@H](CCCNC(=N)N)C(N)=O [P245, Myr-GHR-amide] (Myristoyl-Gly-His-Arg-NH2) | less than 100 ppm
CCCCCCCCCCCCCC(=O)N[C@@H](CC(C)C)C(=O)N[C@@H](CCCCN)C(=O)N[C@@H](CCCCN)C(=O)N[C@@H](C)C(=O)N[C@@H](CC(C)C)C(=O)N[C@@H](CCCCN)C(N)=O [P381, Myr-LKKALK-amide] (Myristoyl-LKKALK-NH2) | less than 100 ppm
CCCCCCCCCCCCCC(=O)N[C@@H](CCCCN)C(=O)N[C@@H](CCCCN)C(=O)N[C@@H](CO)C(=O)N[C@@H](CC(C)C)C(=O)N[C@@H](CCCCN)C(N)=O [P373, Myr-KKSLK-amide] (Myristoyl-KKSLK-NH2) | less than 100 ppm
CCCCCCCCCCCCCC(=O)NCC(=O)N[C@@H](CCCNC(=N)N)C(N)=O [P300, Myr-GR-amide] (Myristoyl-Gly-Arg-NH2) | less than 100 ppm
CCCCCCCCCCCCCC(=O)N[C@H](C(=O)N[C@H](C(=O)N[C@H](C(=O)N[C@@H](CCCCN)C(=O)N[C@@H](CCCCN)C(=O)N[C@@H](CCCCN)C(N)=O)[C@@H](C)CC)[C@@H](C)CC)[C@@H](C)CC [P416, Myr-IIIKKK-amide] (Myristoyl-IIIKKK-NH2) | less than 100 ppm
CCCCCCCCCCCCCC(=O)N[C@@H](CO)C(=O)N[C@@H](CC(=O)O)C(=O)NCC(=O)N[C@@H](CCCNC(=N)N)C(N)=O [P383, Myr-SDGR-amide] (Myristoyl-SDGR-NH2) | less than 100 ppm
